Like-named read-outs stand apart in the source and are kept apart here.
What was measured:
[1] = tested on: PERK-eIF2α-CHOP (apoptotic) arm of the Unfolded Protein Response pathway; assay: UPR-CHOP primary assay (CHO-CHOP luciferase reporter); type: cell-based
Method: The purpose of this assay was to detect activators of the PERK-eIF2α-CHOP (apoptotic) arm of the Unfolded Protein Response pathway.
Cells were passaged twice a week. […] Once the cells had reached confluency, old medium was aspirated and the flasks were washed with 20 mL DPBS per T225 flask. Cells were left in DPBS for about 30 seconds. Subsequently, 6.5 mL 0.05% trypsin solution was added into the flask and the flask was rocked gently so that the solution covered the surface. The cells were allowed to detach by incubating at room temperature for about 4 minutes. The flask was washed with […] fresh growth media and the cell suspension was collected in a 50 mL sterile conical tube. The collected cells were centrifuged at 900 rpm for 5 minutes and re-suspended in 1 mL fresh growth media. An additional 19 mL of growth media was added and the tube was mixed gently. The cell suspension was filtered with a cell strainer and the cells were counted.
As above, cells were grown to confluency, washed, and detached with 5 mL trypsin solution for 4 minutes at room temperature. The flask was washed with 25 mL fresh growth media and the cell suspension was collected in a 50 mL sterile conical tube. The cells were centrifuged at 500 rpm for 10 minutes and re-suspended carefully in 1 mL fresh assay medium. An additional 19 mL of assay media was added the cells were mixed gently. The cell suspension was filtered with a cell strainer and the number of cells was counted. Cell density was adjusted to 1.0×10^5 cells/mL in medium.
On day 1, cell suspensions were prepared and 500 cells in 5 μL of assay media were plated in the wells of columns 1-48 of a 1536-well assay plate. The plates were centrifuged at 500 rpm for 1 minute and subsequently incubated at 37° C., 100% relative humidity, 5% CO2 for 16-18 hours.
[…] […] The plates were centrifuged at 1000 rpm for 1 minute and subsequently incubated at 37° C., 100% relative humidity, 5% CO2 for 6 hours.
Following the 6-hour incubation the plate was incubated for 10 minutes at room temperature and 3 μL of STEADY-GLO was added to each well. The plates were centrifuged at 2000 rpm for 2 minutes and subsequently incubated at room temperature for 10 minutes. Luminescence was measured with a luminometer.
The MLPCN library of approximately 330,000 compounds was tested in the UPR-CHOP primary screen utilizing a luciferase-based reporter expressed in a CHO cell line to identify activators of the CHOP apoptotic pathway. […]

[2] = tested on: panel of OSCC and ovarian cancer cell lines; assay: Proliferation, panel of OSCC and ovarian cancer cell lines; type: cell-based; details: 24 hours, 0.15-20 μM; read-out: IC50 values in eight of the ten cell lines
Method: To determine whether ML291 could reduce the proliferation of malignant cells, a panel of OSCC (UMSCC23, A253, HN6, HN12, HN30, H460/T800) and ovarian cancer (RMG-1, TOV112D, A2780 and SKOV3) cell lines, were treated with increasing doses (0.15-20 μM) of ML291 for 24 hours (FIGS. 3A and 3B).

Structure (SMILES): O=C(Nc1ccc(S(=O)(=O)N2CCC(Cl)CC2)cc1)c1ccc([N+](=O)[O-])o1 [ML291, N-(4-((4-chloropiperidin-1-yl)sulfonyl)phenyl)-5-nitrofuran-2-carboxamide]
- selectivity (XBP1 over CHOP) [1]: > 108.1 fold
- EC50 ([1]; CHO-K1, text, read-out: EC50 in the CHO-K1 cell reporter assays (CHOP)): 762 nM
- EC50 ([1]; Cricetulus griseus, Table 1, mean of replicates, AID602434, read-out: UPR CHOP Assay Potency EC50): 740 nM
- EC50 ([1]; Cricetulus griseus, read-out: CHOP EC50): 740 nM
- Selectivity (XBP1/CHOP) x-fold ([1]; Table 1): >108.1 x-fold
- EC50 ([1]; Table 9, average of four runs, F12 HAMs, 10% hi-FBS, read-out: EC50 UPR CHOP Assay): 780 nM
- EC50 ([1]; read-out: EC50 in the CHO-K1 cell reporter assays (CHOP)): 760 nM
- IC50 [2]: 1600 to 18900 nM

Reference: patent US9732067B2, “Compounds and methods for activating the apoptotic arm of the unfolded protein response” (University of Kansas, priority 2012, dated 2017)
